Read-outs that look alike come from different tables or passages of the source.

Assay [1] has as its system HBV (genotype AeUS). The assay can be described thus: Test Example 2-1: anti-HBV assay in PXB-cells (fresh human hepatocytes). It is filed as cell-based, hepatitis B virus. The following applies: PXB-cells infected with HBV genotype AeUS, culture supernatant on day 32 post infection. The method, then:
Using fresh human hepatocytes (PXB-cells, manufactured by PhenixBio Co., Ltd.) collected from a PXB mouse (a chimeric mouse with human hepatocytes), the anti-HBV activity of the representative compounds was evaluated in the following procedure.
(§1) The following was used as a medium:
DMEM (manufactured by Sigma)+0.25 μg/mL insulin (manufactured by Wako)+1% penicillin/streptomycin. (manufactured by Sigma)+20 mmol/L HEPES (manufactured by Sigma)+15 μg/mL L-proline (manufactured by Sigma)+50 nmol/L dexamethasone (manufactured by Sigma)+5 ng/mL EGF (manufactured by Peprotech)+0.1 mmol/L ascorbic acid 2-phosphate (manufactured by Wako)+10% FBS+2% DMSO
Each of the test compounds) was further added to the medium to prepare a test solution containing each of the test compounds at various concentrations.
(1) PXB-cells seeded at a seeding density of 2.1×10^5 cells/cm^2 in a 96-well microliter plate were incubated in a 5% CO2 incubator at 37° C. until a day on which the cells were infected.
(2) HBV (genotype AeUS) derived from a PXB mouse serum was suspended in the medium containing 4% PEG-8000, and added to the plate of (1) at about 10 copies/cell such that the PXB cells were infected (100 μL/well), and the plate was incubated in a 5% CO2 incubator at 37° C. for 1 day.
(3) The culture supernatant on day 1 post infection was removed and the cells were washed three times with DMEM containing 10% FBS and 1% penicillin/streptomycin. Then, the medium was added to the plate (100 μL/well) and the plate was incubated in a 5% CO2 incubator at 37° C. for 1 day.
(4) The culture supernatant on day 2 post infection was removed and the cells were washed three times with DMEM containing 10% FBS and 1% penicillin/streptomycin. Then, the medium was added to the plate (100 μL/well) and the plate was incubated in a 5% CO2 incubator at 37° C. for 5 days.
(5) The culture supernatant on day 7 post infection was removed, the medium was added to the plate (100 μL/well), and the plate was incubated in a 5% CO2 incubator at 37° C. for 5 days.
(6) The culture supernatant on day 12 post infection was removed, the medium was added to the plate (100 μL/well), and the plate was incubated in a 5% CO2 incubator at 37° C. for 5 days.
(7) The culture supernatant on day 17 post infection was removed, the test solution was added to the plate (100 μL/well), and the plate was incubated in a 5% CO2 incubator at 37° C. for 5 days. As a control without the compound added, the medium was added to the plate (100 μL/well) and the plate was incubated in a 5% CO2 incubator at 37° C. for 5 days.
(8) The culture supernatant on day 22 post infection was removed, the test solution was added to the plate (100 μL/well), and the plate was incubated in a 5% CO2 incubator at 37° C. for 5 days. As a control without the compound added, the medium was added to the plate (100 μL/well) and the plate was incubated in a 5% CO2 incubator at 37° C. for 5 days.
(9) The culture supernatant on day 27 post infection was removed, the test solution was added to the plate (100 μL/well), and the plate was incubated in a 5% CO2 incubator at 37° C. for 5 days. As a control without the compound added, the medium was added to the plate (100 μL/well) and the plate was incubated in a 5% CO2 incubator at 37° C. for 5 days.
(10) The culture supernatant on day 32 post infection was collected.
(11) The collected culture supernatant on day 32 post infection was purified with a QIAamp (registered trademark) DNA Blood Mini Kit (manufactured by QIAGEN). The amount of HBV-DNA in the obtained solution was absolutely quantified by a real-time PCR method. In addition, the amount of HBsAg in the culture supernatant was absolutely quantified by chemiluminescent enzyme immunoassay using Lumipulse (registered trademark) HBsAg-HQ (manufactured by Fujirebio Inc.). A relative viral load (%) with respect to a control without the compound added was each calculated. […]

For assay [2], the system named is HBV. The assay can be described thus: Test Example 1-1: anti-HBV assay in HepG2.2.15 cells (test solution 200 μL/well). The following applies: culture supernatant. It is filed as cell-based, hepatitis B virus. The method, then: Using HepG2.2.15 cells (Proc. Natl. Acad. Sci. USA, 84, 1005-1009, 1987) which have an HBV genome introduced into a hepatoblastoma cell line, HepG2, and persistently produce a virus, the anti-HBV activity of the representative compounds was evaluated in the following procedure.
as §1
DMEM/F-12, GlutaMAX (manufactured by Invitrogen)+5 μg/mL insulin (manufactured by Wako)+1% penicillin/streptomycin (manufactured by Sigma)+10 mmol/L HEPES (manufactured by Sigma)+50 μmol/L hydrocortisone (manufactured by Sigma)+10% FBS
A mixture of a test compound with dimethyl sulfoxide (DMSO) was further added to the medium to obtain a final concentration of DMSO of 0.25% (v/v), and thus, test solutions containing the test compound at various concentrations were prepared. In addition, a test solution obtained by adding DMSO alone to the medium to obtain a final concentration of 0.25% (v/v) was prepared as a control without addition of a drug.
(1) The HepG2.2.15 cells were suspended in the medium to prepare a. HepG2.2.15 cell suspension at 4×10^5 cells/mL. The suspension was seeded in a 96-well microtiter plate (100 μL/well) and the plate was incubated in a 5% CO2 incubator at 37° C. for 2 days.
(2) The culture supernatant was removed and the cells were washed twice with PBS (−) (100 μL/well).
(3) The test solution (200 μL/well) was added to the plate of (2) and the plate was incubated in a 5% CO2 incubator at 37° C. for 4 days.
(4) The culture supernatant was removed, the test solution (200 μL/well) was added again to the plate, and the plate was incubated in a 5% CO2 incubator at 37° C. for 3 days.
(5) The culture supernatant was collected and treated with a mixture of Buffer AL (manufactured by QIAGEN) and Proteinase K (manufactured by Invitrogen). The amount of DNA of HBV (HBV-DNA) in the obtained solution was absolutely quantified by a real-time PCR method. In addition, HBsAg (hepatitis B surface antigen) in the culture supernatant was absolutely quantified by chemiluminescent enzyme immunoassay using Lumipulse (registered trademark) HBsAg-HQ (manufactured by Fujirebio Inc.). The relative viral load (%) of a well with the compound added to a well without the compound added was calculated. An IC50 of the compound was calculated using a FORECAST function (linear regression method) of Microsoft Office Excel 2007 by plotting the logarithm of the concentration against the relative viral load as a real number.
The IC50 of HBV-DNA was defined as a concentration (or a logarithm dilution of the culture supernatant) of the compound, in which the amount of HBV-DNA is reduced by 50% as compared a control without the compound added.
In addition, the IC50 of HBsAg was defined as a concentration (or a logarithm dilution of the culture supernatant) of the compound, in which the amount of HBsAg is reduced by 50% as compared a control without the compound added.

The mark [3] stands for this setting: Hepatitis B virus, Hepatocyte, read-out: IC50 HBV-DNA.
Setting [4] is: Hepatitis B virus, Hepatocyte, read-out: IC50 HBsAg.
Setting [5] is: Hepatitis B virus, read-out: IC50 HBV-DNA.
Where [6] appears, read: Hepatitis B virus, read-out: IC50 HBsAg.

With “1-(2-morpholinebenzo[d]thiazol-6-yl)-4-oxo-6-(4-(pyrrolidin-1-yl)phenyl)-1,4-dihydropyridine-3-carboxylic acid [Example 3-4]”, the IC50 (as a rule, the point on the concentration scale where inhibition reaches its midpoint) in assay [1] (read-out: IC50 HBV-DNA) worked out at 22 nM; in assay [1] (read-out: IC50 HBsAg) it was 14 nM; in assay [2] (read-out: IC50 HBV-DNA), 5.5 nM; in assay [2] (read-out: IC50 HBsAg), 5.9 nM.

With `O=C(O)c1cn(-c2ccc3ncsc3c2)c(-c2ccc(N3CCCC3)cc2)cc1=O` [Example 3-1, 1-(benzo[d]thiazol-6-yl)-4-oxo-6-(4-(pyrrolidin-1-yl)phenyl)-1,4-dihydropyridine-3-carboxylic acid], the IC50 in assay [1] (setting [3]) was determined as 230 nM; in assay [1] (setting [4]), 540 nM; in assay [2] (setting [5]) it was 27 nM; in assay [2] (setting [6]) it was 21 nM.

For `Cc1nc2ccc(-n3cc(C(=O)O)c(=O)cc3-c3ccc(N4CCCC4)cc3)cc2s1` [Example 3-2, 1-(2-methylbenzo[d]thiazol-6-yl)-4-oxo-6-(4-(pyrrolidin-1-yl)phenyl)-1,4-dihydropyridine-3-carboxylic acid], the half-inhibitory concentration (IC50) in assay [1] (setting [3]) amounted to 470 nM; in assay [1] (setting [4]), 150 nM; in assay [2] (setting [5]), 9 nM; in assay [2] (setting [6]), 3.1 nM.

On to `O=C(O)c1cn(-c2ccc3nc(N4CCCC4)sc3c2)c(-c2ccc(N3CCCC3)cc2)cc1=O` [Example 3-3, 4-oxo-1-(2-(pyrrolidin-1-yl)benzo[d]thiazol-6-yl)-6-(4-(pyrrolidin-1-yl)phenyl)-1,4-dihydropyridine-3-carboxylic acid], for which the IC50 in assay [1] (setting [3]) is 52 nM; in assay [1] (setting [4]), 77 nM; in assay [2] (setting [5]) it was 2 nM; in assay [2] (setting [6]), 5 nM.

`COC[C@H]1CCCN1c1nc2ccc(-n3cc(C(=O)O)c(=O)cc3-c3ccc(N4CCCC4)cc3)cc2s1` [Example 3-10, (R)-1-(2-(2-(methoxymethyl)pyrrolidin-1-yl)benzo[d]thiazol-6-yl)-4-oxo-6-(4-(pyrrolidin-1-yl)phenyl)-1,4-dihydropyridine-3-carboxylic acid]: the IC50 in assay [1] (setting [3]) was determined as 15 nM; in assay [1] (setting [4]), 39 nM; in assay [2] (setting [5]), 2.8 nM; in assay [2] (setting [6]) it was 1.3 nM.

`COC[C@H]1CCCN1c1nc2ccc(-n3cc(C(=O)O)c(=O)cc3-c3ccc(N4CCCC4)c(Br)c3)cc2s1` [Example 5-6, (R)-6-(3-bromo-4-(pyrrolidin-1-yl)phenyl)-1-(2-(2-(methoxymethyl)pyrrolidin-1-yl)benzo[d]thiazol-6-yl)-4-oxo-1,4-dihydropyridine-3-carboxylic acid]: the values for the IC50 in assay [1] (setting [3]) and in assay [1] (setting [4]) were 41 nM and 62 nM, respectively.

Turning to `COCCN(CCOC)c1nc2ccc(-n3cc(C(=O)O)c(=O)cc3-c3ccc(N4CCCC4)c(Cl)c3)cc2s1` [Example 6-2], the figures for the concentration for half-maximal inhibition (IC50) in assay [1] (read-out: IC50 HBV-DNA) and in assay [1] (read-out: IC50 HBsAg) were 25 nM and 81 nM, respectively.

Consider `COC[C@H]1CCCN1c1nc2ccc(-n3cc(C(=O)O)c(=O)cc3-c3ccc(N4CCCC4)c(Cl)c3)cc2s1` [Example 6-3, (R)-6-(3-chloro-4-(pyrrolidin-1-yl)phenyl)-1-(2-(2-(methoxymethyl)pyrrolidin-1-yl)benzo[d]thiazol-6-yl)-4-oxo-1,4-dihydropyridine-3-carboxylic acid], for which the concentration for half-maximal inhibition (IC50) in assay [1] (setting [3]) is 30 nM; in assay [1] (setting [4]), 57 nM.

Consider `COCCN(CCOC)c1nc2ccc(-n3cc(C(=O)O)c(=O)cc3-c3ccc(N4CC[C@@H](OC)C4)cc3)cc2s1` [Example 10-3], for which the half-inhibitory concentration (IC50) in assay [1] (read-out: IC50 HBV-DNA) was determined as 47 nM; in assay [1] (read-out: IC50 HBsAg), 56 nM.

For `CCN1CCN(c2nc3ccc(-n4cc(C(=O)O)c(=O)cc4-c4ccc(N5CC[C@@H](OC)C5)cc4)cc3s2)CC1` [Example 10-4, (R)-1-(2-(4-ethylpiperazin-1-yl)benzo[d]thiazol-6-yl)-6-(4-(3-methoxypyrrolidin-1-yl)phenyl)-4-oxo-1,4-dihydropyridine-3-carboxylic acid], the IC50 in assay [1] (setting [3]) was determined as 61 nM; in assay [1] (setting [4]), 78 nM.

Turning to `COCCN(CCOC)c1nc2ccc(-n3cc(C(=O)O)c(=O)cc3-c3ccc(N4CC[C@@H](OC)C4)c(Cl)c3)cc2s1` [Example 12-1, (R)-1-(2-(bis(2-methoxyethyl)amino)benzo[d]thiazol-6-yl)-6-(3-chloro-4-(3-methoxypyrrolidin-1-yl)phenyl)-4-oxo-1,4-dihydropyridine-3-carboxylic acid], the IC50 in assay [1] (setting [3]) is < 8 nM; in assay [1] (setting [4]), 11 nM.

For the molecule `COCCN1CCN(c2nc3ccc(-n4cc(C(=O)O)c(=O)cc4-c4ccc(N5CC[C@@H](OC)C5)c(Cl)c4)cc3s2)CC1` [Example 12-2, (R)-6-(3-chloro-4-(3-methoxypyrrolidin-1-yl)phenyl)-1-(2-(4-(2-methoxyethyl)piperazin-1-yl)benzo[d]thiazol-6-yl)-4-oxo-1,4-dihydropyridine-3-carboxylic acid], the results for the IC50 in assay [1] (setting [3]) and in assay [1] (setting [4]) were 28 nM and 42 nM, respectively.

(Values after patent US11161830B2, “4-pyridone compound or salt thereof, and pharmaceutical composition and formulation including same” (priority 2017, dated 2021).)
